Values of other authors in patent US20170304164A1, “COMPOSITIONS, APPARATUS AND METHODS FOR MONITORING AND IMPROVING ORAL HEALTH” (Berkeley NOX Limited, priority 2016, published 2017).

Legend:
Desulfovibrio spp. = conditions: 0.2 mM nitrate
Eikenella corrodens = conditions: under acidic conditions
Streptococcus mutans = conditions: 0.2 mM nitrite, acidity levels below pH 7
Porphyromonas gingivalis = conditions: under acidic conditions
Fusobacterium nucleatum = conditions: under acidic conditions

| Compound | growth (Desulfovibrio spp.) | growth (Eikenella corrodens) | effect on bacteria (Streptococcus mutans) | growth (Porphyromonas gingivalis) | growth (Fusobacterium nucleatum) |
| --- | --- | --- | --- | --- | --- |
| O=[N+]([O-])O [nitrate] | growth is inhibited | – | – | – | – |
| O=NO [nitrite] | – | inhibited the growth | effective complete killing | inhibited the growth | inhibited the growth |
